Laboratory results as given in patent US20230173018A1, “CASPOFUNGIN DERIVATIVES AND ASSAYS FOR EVALUATING ANTIFUNGAL TREATMENT EFFICACY” (priority 2020, published 2023).

How the values were obtained:
Format in all cases: cell-based
[1] = system: C. albicans SC5314 and SN152; test: Competition for cellular uptake with probe 1, flow cytometry; details: added simultaneously with probe 1; caspofungin 1 μM, 10 μM; fluconazole 10 μM
Experimental: To determine if caspofungin competes for cellular uptake with fluorescent probe 1, both the drug and the probe were added simultaneously to cultures of strains SC5314 and SN152. The uptake of probe 1 was measured by flow cytometry every 15 minutes for 1 hour (FIG. 6B). […] No effect on the uptake of probe 1 was detected in cells co-treated with the antifungal azole drug fluconazole, which inhibits the biosynthesis of fungal membrane sterol, ergosterol.

[2] = system: C. albicans SC5314 and C. albicans SN152; test: Effect of endocytosis inhibitors on growth of Candida cells; details: 8 μg/mL, FIGS. 6C-6F
[3] = system: C. albicans SC5314 and SN152 cells; test: Effect of endocytosis inhibitors on probe 1 uptake, flow cytometry; details: 8 μg/mL inhibitor, 1 μM probe 1, after 30 min, both SC5314 and SN152
Experimental: Assuming that echinocandin probe uptake occurs via endocytosis, then inhibitors of endocytosis should inhibit probe uptake as well. The accumulation of probe 1 in C. albicans SC5314 and SN152 cells was measured by flow cytometry in the absence and presence of endocytosis inhibitors trifluoperazine (TFP) or pyrroloquinoxaline derivative CGS 12066B (FIG. 6A).
For example, after 30 min, TFP inhibited the uptake of probe 1 by approximately 30% and CGS 12066B inhibited its uptake by approximately 60% in both C. albicans SC5314 and SN152.

| Structure (SMILES) | effect on the uptake of probe 1 [1] | effect on growth [2] | inhibition at 8 µg/mL ([3]; Candida albicans, 0.5 h) [%] | inhibition of the uptake of probe 1 [3] |
| --- | --- | --- | --- | --- |
| OC(Cn1cncn1)(Cn1cncn1)c1ccc(F)cc1F [fluconazole] | No effect | – | – | – |
| CN1CCN(CCCN2c3ccccc3Sc3ccc(C(F)(F)F)cc32)CC1 [TFP, trifluoperazine] | – | modestly reduce growth | ~30 | – |
| CN1CCN(c2nc3cc(C(F)(F)F)ccc3n3cccc23)CC1.O=C(O)/C=C\C(=O)O.O=C(O)/C=C\C(=O)O [CGS 12066B] | – | modestly reduce growth | – | approximately 60% |
